The nature of series [1]: Stability of anhydrous treprostinil at 25° C. (6-month stability report, lot 01A07002). It counts as physicochemical. On the procedure:
II. Stability of Anhydrous Form Versus Monohydrate Form of TREPROSTINIL at 25° C.
1. Stability Report (6-month) for anhydrous lot #01A07002
A 3.34-kg sample of treprostinil diethanolamine salt was dissolved in 40 L of sterile water, 60 L of ethyl acetate and 3.2 L of 3 M HCl were added and the mixture stirred. The layers were separated and the aqueous layer was extracted thrice with 20-L portions of ethyl acetate. The four organic layers were combined, the organic solution washed twice with 20-L portions of sterile water, once with 20 L of brine and dried over 2.97 kg of anhydrous sodium sulfate. The mixture was filtered and the filtrate was concentrated to yield treprostinil as a gummy solid. This solid was transferred to glass drying trays and let air-dry for 93 hours. This solid was then dissolved in 23.4 kg of ethanol, warmed to 48° C. and treated with 23.4 kg of warm (40-50° C.) sterile water. The solution was stirred and then stirring was stopped to allow the treprostinil to slowly crystallize. The resulting white solid was collected by filtration in an Aurora filter, washed with 45 L of a cold (6° C.) 20% ethanol in sterile water solution, the filter moved to a Hepa-filtered Finishing Room and the solid dried under house vacuum for 22.3 hours. The solid was transferred to drying trays and further dried in a vacuum oven at 55 deg. C and 0.26 Torr for 22.7 hours to give 2.63 kg (96.3%) of anhydrous treprostinil (Lot #01A07002) as a white solid.

Series [2] can be described thus: Stability tests of treprostinil forms (dimer formation, room temperature stability). It counts as physicochemical. On the procedure:
The anhydrous form of treprostinil (TREPROSTINIL) has been previously described, e.g., in J. Org. Chem. 2004, 69, 1890-1902. […] A larger amount of dimers can form at higher temperatures. However, dimer formation is negligible at 5° C. Therefore, anhydrous treprostinil must be refrigerated for storage and transport. In the past, treprostinil had to be refrigerated and shipped with ice packs to maintain low (2° C.-8° C.) temperatures.
The instability of anhydrous treprostinil also imposes challenges to its preparation. To obtain anhydrous treprostinil, wet compound from recrystallization was heated in a vacuum. […] Therefore, heating temperature must be carefully controlled to avoid high heat when drying treprostinil in order to remove all water, otherwise these two dimer impurities will be produced.
Data has been generated to characterize a monohydrate form of treprostinil. […] Treprostinil monohydrate can be stored and shipped with no special handling.

Turning to `CCCCC[C@H](O)CC[C@@H]1[C@H]2Cc3cccc(OCC(=O)O)c3C[C@H]2C[C@H]1O` [Lot No. 01 A07002 (Anhydrous), 2-((1R,2R,3aS,9aS)-2-hydroxy-1-((S)-3-hydroxyoctyl)-2,3,3a,4,9,9a-hexahydro-1H-cyclopenta[b]naphthalen-5-yloxy)acetic acid], in series [1] (3 months), the “HPLC Assay 750W93” value stood at 1.2, the “HPLC Assay 751W93” value stood at 0.9, the “HPLC Assay Treprostinil” value turned out to be 98.1% and the Physical examination result is reported as “White powder”. In series [1] (3 months), the “Water (Karl Fischer)” value was determined as 0.7%. Moreover, in series [1] (6 months), the “HPLC Assay 750W93” value was 1.5, the “HPLC Assay 751W93” value came out at 1.1, the “HPLC Assay Treprostinil” value came to 95.4% and the Physical examination result is “White powder”. For the same molecule, the “Water (Karl Fischer)” value in series [1] (6 months) is 0.8%. In series [1] (Initial), the “HPLC Assay 750W93” value came to 0.2, the “HPLC Assay 751W93” value is recorded as 0.3, the “HPLC Assay Treprostinil” value is 99.6% and the Physical examination result was “White powder”. The “Water (Karl Fischer)” value in series [1] (Initial) is listed as 0.4%. The Dimer formation result in series [2] (5° C.) is reported as “negligible”. The “Stability (stability tests)” value in series [2] (25° C., dimers formed upon standing) is “not stable”. The “Dimer formation on heating the solid” value in series [2] (solid heated above 50° C. in vacuum drying) is “two dimers of treprostinil formed”.

Source of the values: US8350079B2, “Treprostinil formulation” (United Therapeutics Corporation, priority 2008, dated 2013).
